Earlier results, collected in patent US8968799B2, “Time delayed release mechanism for energizing composition and method of use” (Rise-N-Shine L.L.C., priority 2006, dated 2015).

How the values were obtained:
[1] = cold, fatigue, sleep deprivation
[2] = particularly as methylcobalamin; healthy men and women

Structure (SMILES) | effect on cognitive performance and mood under acute stress [1] | effect on sleep time, sleep quality and daytime alertness [2]
N[C@@H](Cc1ccc(O)cc1)C(=O)O [Tyrosine, 4-hydroxyphenylalanine] | appears to prevent the substantial decline | –
C/C1=C2/[N-][C@H]([C@H](CC(N)=O)[C@@]2(C)CCC(=O)NC[C@@H](C)OP(=O)([O-])O[C@H]2[C@@H](O)[C@@H](n3cnc4cc(C)c(C)cc43)O[C@@H]2CO)[C@]2(C)N=C(/C(C)=C3N=C(/C=C4N=C1[C@@H](CCC(N)=O)C\4(C)C)[C@@H](CCC(N)=O)[C@]\3(C)CC(N)=O)[C@@H](CCC(N)=O)[C@]2(C)CC(N)=O.[CH3-].[Co+3] [vitamin B12, methylcobalamin] | – | decrease sleep time yet improve sleep quality and daytime alertness
